Assays:
Bos taurus = organism: Bos taurus; conditions: at 10 µM
Description: Inhibition of bovine heart PKA at 10 uM

Oryctolagus cuniculus [1] = organism: Oryctolagus cuniculus; conditions: at 10 µM
Description: Inhibition of rabbit MKK1 expressed in Escherichia coli at 10 uM

[2] = molecular target: MAP kinase-activated protein kinase 2 (Homo sapiens, UniProt P49137); conditions: at 10 µM
Description: Inhibition of Gst-tagged human MAPKAPK2 expressed in Escherichia coli at 10 uM

[3] = Inhibition of bovine heart PKA; design: species or system Bos taurus
[4] = molecular target: T1, MAP kinase-activated protein kinase 5 (Homo sapiens) (UniProt Q8IW41); conditions: Sf9, at 10 µM
T1 sequence (whole entry): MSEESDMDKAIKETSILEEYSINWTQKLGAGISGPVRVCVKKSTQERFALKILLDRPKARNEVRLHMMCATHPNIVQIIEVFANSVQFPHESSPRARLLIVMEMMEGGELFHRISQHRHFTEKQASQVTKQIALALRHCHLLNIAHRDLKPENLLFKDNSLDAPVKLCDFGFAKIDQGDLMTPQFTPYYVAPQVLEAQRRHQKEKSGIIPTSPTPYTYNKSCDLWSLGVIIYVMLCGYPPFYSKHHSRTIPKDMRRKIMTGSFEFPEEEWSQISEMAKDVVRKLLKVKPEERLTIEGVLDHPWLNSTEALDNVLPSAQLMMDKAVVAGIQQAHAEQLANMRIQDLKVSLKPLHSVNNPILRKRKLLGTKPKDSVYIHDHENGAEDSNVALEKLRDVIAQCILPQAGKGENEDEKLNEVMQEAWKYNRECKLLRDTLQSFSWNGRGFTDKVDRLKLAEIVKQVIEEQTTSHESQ
Description: Inhibition of His-tagged human PRAK expressed in Sf9 cells at 10 uM

[5] = molecular target: Ribosomal protein S6 kinase beta-1 (Homo sapiens, UniProt P23443); conditions: at 10 µM
Description: Inhibition of His-tagged human S6K1 expressed in Escherichia coli at 10 uM

[6] = molecular target: Mitogen-activated protein kinase 11 (Homo sapiens) (UniProt Q15759); conditions: at 10 µM
Description: Inhibition of Gst-tagged human SAPK2b/p38--beta-2 expressed in Escherichia coli at 10 uM

[7] = molecular target: Casein kinase II (Homo sapiens) (UniProt P67870+P68400+P19784); conditions: Sf9, at 10 µM
Description: Inhibition of His-tagged human CK2 expressed in Sf9 cells at 10 uM

[8] = molecular target: Tyrosine-protein kinase Lck (Homo sapiens) (UniProt P06239); conditions: Sf9, at 10 µM
Description: Inhibition of His-tagged human LCK expressed in Sf9 cells at 10 uM

Oryctolagus cuniculus [9] = organism: Oryctolagus cuniculus; conditions: Muscle tissue, at 10 µM
Description: Inhibition of PHK from rabbit skeletal muscle at 10 uM

[10] = Inhibition of PHK from rabbit skeletal muscle; assay type: tissue-based, Oryctolagus cuniculus, Muscle tissue
[11] = molecular target: Glycogen synthase kinase-3 beta (Homo sapiens, UniProt P49841); conditions: Sf21, at 10 µM
Description: Inhibition of His-tagged human GSK3b expressed in Sf21 cells at 10 uM

[12] = molecular target: Protein kinase C alpha type (Homo sapiens, UniProt P17252); conditions: at 10 µM
Description: Inhibition of His-tagged human PKCalpha expressed in Escherichia coli at 10 uM

[13] = molecular target: T2, Serine/threonine-protein kinase Chk1 (Homo sapiens) (UniProt O14757); conditions: at 10 µM
T2 sequence (whole entry): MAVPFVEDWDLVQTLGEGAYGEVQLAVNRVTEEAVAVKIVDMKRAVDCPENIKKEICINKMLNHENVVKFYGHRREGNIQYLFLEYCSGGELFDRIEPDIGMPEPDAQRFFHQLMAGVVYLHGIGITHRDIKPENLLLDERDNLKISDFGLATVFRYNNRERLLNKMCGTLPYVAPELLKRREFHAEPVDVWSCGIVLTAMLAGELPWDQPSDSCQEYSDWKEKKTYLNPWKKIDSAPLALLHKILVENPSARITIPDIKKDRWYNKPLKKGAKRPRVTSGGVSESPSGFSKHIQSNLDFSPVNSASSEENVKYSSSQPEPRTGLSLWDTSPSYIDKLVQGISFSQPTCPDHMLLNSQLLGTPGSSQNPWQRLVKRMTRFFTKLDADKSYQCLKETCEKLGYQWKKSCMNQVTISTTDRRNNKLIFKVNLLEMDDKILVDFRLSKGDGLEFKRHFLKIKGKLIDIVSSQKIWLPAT
Description: Inhibition of His-tagged human CHK1 expressed in Escherichia coli at 10 uM

[14] = molecular target: Ribosomal protein S6 kinase alpha-5 (Homo sapiens, UniProt O75582); conditions: Sf9, at 10 µM
Description: Inhibition of His-tagged human MSK1 expressed in Sf9 cells at 10 uM

[15] = molecular target: Rho-associated protein kinase 2 (Rattus norvegicus) (UniProt Q62868); conditions: Sf9, at 10 µM
Description: Inhibition of rat ROCK2 expressed in Sf9 cells at 10 uM

[16] = molecular target: Mitogen-activated protein kinase 1 (Homo sapiens) (UniProt P28482); conditions: at 10 µM
Description: Inhibition of Gst-tagged human MAPK2/ERK2 expressed in Escherichia coli at 10 uM

[17] = molecular target: T3, Mitogen-activated protein kinase 13 (Homo sapiens) (UniProt O15264); conditions: at 10 µM
T3 sequence (whole entry): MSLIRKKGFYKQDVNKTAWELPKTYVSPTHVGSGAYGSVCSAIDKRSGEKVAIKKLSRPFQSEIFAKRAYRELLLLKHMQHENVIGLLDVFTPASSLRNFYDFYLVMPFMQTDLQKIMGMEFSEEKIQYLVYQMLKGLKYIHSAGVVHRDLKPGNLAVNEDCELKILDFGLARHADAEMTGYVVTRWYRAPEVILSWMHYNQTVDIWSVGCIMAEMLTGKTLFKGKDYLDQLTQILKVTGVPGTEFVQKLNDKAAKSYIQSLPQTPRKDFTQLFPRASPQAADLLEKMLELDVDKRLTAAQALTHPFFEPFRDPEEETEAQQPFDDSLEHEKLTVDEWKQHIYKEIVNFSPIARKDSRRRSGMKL
Description: Inhibition of Gst-tagged human SAPK4/p38delta expressed in Escherichia coli at 10 uM

Oryctolagus cuniculus [18] = organism: Oryctolagus cuniculus; conditions: Muscle tissue, at 10 µM; remark: listed apart in the source
Description: Inhibition of MAPKAPK1b from rabbit skeletal muscle at 10 uM

[19] = molecular target: 3-phosphoinositide-dependent protein kinase 1 (Homo sapiens) (UniProt O15530); conditions: Sf21, at 10 µM
Rattus norvegicus = organism: Rattus norvegicus; conditions: at 10 µM
Description: Inhibition of rat liver AMPK at 10 uM

[20] = molecular target: RAC-alpha serine/threonine-protein kinase (Homo sapiens) (UniProt P31749); conditions: Sf9, at 10 µM
Description: Inhibition of human PKBalpha expressed in SF9 cells at 10 uM

[21] = molecular target: T4, Mitogen-activated protein kinase 12 (Homo sapiens) (UniProt P53778); conditions: at 10 µM
T4 sequence (whole entry): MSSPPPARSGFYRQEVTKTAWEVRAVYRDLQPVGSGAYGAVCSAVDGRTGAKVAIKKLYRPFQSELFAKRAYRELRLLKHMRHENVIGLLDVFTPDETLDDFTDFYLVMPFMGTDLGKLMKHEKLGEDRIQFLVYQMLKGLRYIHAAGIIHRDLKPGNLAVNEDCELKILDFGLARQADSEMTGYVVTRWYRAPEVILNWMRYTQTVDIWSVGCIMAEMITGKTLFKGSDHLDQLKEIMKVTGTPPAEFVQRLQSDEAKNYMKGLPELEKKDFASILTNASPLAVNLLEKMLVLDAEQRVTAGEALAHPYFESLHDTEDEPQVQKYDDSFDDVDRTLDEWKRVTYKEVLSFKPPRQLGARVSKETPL
Description: Inhibition of Gst-tagged human SAPK3/p38gamma expressed in Escherichia coli at 10 uM

[22] = molecular target: T5, Serine/threonine-protein kinase Sgk1 (Homo sapiens) (UniProt O00141); conditions: Sf9, at 10 µM
T5 sequence (whole entry): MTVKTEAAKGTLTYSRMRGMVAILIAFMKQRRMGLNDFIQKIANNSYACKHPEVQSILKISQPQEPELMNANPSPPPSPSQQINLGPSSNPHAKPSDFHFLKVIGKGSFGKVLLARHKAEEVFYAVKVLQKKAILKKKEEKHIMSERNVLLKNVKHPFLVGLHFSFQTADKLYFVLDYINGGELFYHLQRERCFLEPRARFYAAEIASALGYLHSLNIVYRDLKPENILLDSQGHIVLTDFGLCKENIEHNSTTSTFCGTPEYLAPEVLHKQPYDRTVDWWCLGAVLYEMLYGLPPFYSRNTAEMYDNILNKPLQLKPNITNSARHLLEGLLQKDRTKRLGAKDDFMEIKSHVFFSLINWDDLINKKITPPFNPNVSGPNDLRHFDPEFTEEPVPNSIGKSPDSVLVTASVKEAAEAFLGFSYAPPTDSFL
Description: Inhibition of His-tagged human SGK expressed in Sf9 cells at 10 uM

[23] = molecular target: Mitogen-activated protein kinase 8 (Homo sapiens) (UniProt P45983); conditions: at 10 µM
Description: Inhibition of Gst-tagged human JNK1a1 expressed in Escherichia coli at 10 uM

[24] = molecular target: Mitogen-activated protein kinase 14 (Homo sapiens) (UniProt Q16539); conditions: at 10 µM
Chain of Mitogen-activated protein kinase 14 (Homo sapiens) (Q16539 whole entry): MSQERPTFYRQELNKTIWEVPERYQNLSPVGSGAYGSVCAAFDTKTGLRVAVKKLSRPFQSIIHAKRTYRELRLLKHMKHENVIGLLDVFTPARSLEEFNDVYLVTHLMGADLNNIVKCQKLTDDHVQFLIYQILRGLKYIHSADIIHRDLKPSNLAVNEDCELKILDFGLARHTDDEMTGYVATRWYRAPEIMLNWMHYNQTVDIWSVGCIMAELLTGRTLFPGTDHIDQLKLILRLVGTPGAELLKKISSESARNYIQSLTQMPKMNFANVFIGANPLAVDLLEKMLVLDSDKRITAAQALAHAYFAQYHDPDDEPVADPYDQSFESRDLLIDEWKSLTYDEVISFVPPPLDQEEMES
Description: Inhibition of Gst-tagged human SAPK2a/p38 expressed in Escherichia coli at 10 uM

Chain of Ribosomal protein S6 kinase alpha-5 (O75582 whole entry, looked up): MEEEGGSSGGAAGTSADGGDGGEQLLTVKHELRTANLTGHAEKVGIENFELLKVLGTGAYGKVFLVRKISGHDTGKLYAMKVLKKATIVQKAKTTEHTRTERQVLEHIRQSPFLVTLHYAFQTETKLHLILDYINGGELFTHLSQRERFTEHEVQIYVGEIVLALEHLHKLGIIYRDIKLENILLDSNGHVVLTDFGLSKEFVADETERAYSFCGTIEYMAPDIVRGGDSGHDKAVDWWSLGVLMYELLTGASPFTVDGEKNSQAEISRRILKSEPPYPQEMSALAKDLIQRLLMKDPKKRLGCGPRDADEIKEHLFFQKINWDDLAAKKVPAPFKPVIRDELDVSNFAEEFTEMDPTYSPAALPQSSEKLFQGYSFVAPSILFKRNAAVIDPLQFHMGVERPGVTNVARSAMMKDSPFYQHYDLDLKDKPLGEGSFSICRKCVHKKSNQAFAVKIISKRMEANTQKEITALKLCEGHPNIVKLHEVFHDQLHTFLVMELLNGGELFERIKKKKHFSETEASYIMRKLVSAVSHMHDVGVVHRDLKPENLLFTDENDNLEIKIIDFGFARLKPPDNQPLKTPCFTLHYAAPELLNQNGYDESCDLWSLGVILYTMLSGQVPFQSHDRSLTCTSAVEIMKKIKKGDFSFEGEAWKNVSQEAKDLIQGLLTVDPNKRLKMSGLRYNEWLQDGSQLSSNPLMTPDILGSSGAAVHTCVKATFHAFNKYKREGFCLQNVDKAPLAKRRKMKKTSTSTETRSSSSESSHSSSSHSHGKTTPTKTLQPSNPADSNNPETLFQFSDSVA
Chain of 3-phosphoinositide-dependent protein kinase 1 (Homo sapiens) (O15530 whole entry, looked up): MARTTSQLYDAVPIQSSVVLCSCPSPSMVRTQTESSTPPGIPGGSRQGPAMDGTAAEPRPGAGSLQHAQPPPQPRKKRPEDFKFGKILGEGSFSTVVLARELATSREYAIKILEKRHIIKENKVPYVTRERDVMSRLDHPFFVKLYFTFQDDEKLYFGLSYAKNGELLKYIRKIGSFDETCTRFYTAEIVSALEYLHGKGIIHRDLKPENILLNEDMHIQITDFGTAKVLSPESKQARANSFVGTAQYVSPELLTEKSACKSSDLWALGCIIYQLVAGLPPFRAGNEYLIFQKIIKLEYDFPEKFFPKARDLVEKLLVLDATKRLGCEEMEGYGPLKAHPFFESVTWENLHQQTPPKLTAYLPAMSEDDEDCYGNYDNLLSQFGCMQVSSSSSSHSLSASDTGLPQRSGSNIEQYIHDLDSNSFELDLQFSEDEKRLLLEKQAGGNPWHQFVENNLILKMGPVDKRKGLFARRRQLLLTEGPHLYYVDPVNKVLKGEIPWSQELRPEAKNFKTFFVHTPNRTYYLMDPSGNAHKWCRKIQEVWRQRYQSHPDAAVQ
Chain of Ribosomal protein S6 kinase beta-1 (P23443 whole entry, looked up): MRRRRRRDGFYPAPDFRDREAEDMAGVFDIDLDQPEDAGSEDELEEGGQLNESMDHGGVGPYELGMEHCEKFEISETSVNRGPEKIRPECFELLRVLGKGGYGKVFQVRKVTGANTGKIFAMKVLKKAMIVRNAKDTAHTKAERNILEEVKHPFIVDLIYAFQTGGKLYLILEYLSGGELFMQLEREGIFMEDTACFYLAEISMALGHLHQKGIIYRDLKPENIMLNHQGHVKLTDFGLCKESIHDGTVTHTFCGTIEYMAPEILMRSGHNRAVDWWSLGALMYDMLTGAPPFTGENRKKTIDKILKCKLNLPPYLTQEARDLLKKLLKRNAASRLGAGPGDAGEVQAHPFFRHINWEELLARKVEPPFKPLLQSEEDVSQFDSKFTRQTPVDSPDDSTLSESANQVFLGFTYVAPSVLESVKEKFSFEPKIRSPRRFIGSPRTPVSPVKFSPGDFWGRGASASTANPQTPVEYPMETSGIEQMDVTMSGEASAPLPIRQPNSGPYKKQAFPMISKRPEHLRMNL
Chain of Mitogen-activated protein kinase 8 (Homo sapiens) (P45983 whole entry): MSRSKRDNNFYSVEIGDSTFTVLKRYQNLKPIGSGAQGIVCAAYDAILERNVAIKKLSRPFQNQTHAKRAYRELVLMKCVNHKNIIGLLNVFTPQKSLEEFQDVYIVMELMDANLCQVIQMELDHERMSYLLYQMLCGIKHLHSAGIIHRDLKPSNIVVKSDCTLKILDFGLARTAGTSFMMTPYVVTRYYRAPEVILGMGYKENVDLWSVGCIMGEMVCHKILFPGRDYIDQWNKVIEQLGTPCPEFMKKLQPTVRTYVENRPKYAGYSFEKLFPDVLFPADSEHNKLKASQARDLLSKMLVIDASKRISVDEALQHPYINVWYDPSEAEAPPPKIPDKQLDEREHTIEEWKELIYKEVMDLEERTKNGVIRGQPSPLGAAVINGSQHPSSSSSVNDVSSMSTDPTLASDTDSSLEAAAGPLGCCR
Chain of Mitogen-activated protein kinase 11 (Homo sapiens) (Q15759 whole entry): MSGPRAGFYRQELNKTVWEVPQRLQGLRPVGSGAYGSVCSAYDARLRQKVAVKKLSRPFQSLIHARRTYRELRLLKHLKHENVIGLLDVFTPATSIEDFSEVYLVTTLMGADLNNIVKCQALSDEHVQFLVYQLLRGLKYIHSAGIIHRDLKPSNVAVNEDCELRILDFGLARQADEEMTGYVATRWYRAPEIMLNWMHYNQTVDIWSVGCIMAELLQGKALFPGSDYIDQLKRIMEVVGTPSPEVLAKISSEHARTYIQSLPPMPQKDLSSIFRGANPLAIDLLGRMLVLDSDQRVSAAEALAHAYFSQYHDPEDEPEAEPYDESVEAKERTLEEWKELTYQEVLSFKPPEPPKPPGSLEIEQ
Chain of MAP kinase-activated protein kinase 2 (P49137 whole entry, looked up): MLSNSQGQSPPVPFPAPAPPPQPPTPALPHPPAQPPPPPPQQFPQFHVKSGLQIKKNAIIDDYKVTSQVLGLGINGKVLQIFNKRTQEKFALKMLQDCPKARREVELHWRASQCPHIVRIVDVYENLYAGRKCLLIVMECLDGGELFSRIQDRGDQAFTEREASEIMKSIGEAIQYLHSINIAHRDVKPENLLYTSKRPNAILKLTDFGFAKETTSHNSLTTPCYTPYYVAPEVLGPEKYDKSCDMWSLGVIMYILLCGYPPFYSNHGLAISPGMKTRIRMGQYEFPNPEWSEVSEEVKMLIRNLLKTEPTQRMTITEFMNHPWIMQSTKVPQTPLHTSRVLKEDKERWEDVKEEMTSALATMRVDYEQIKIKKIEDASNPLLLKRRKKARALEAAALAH
Chain of Tyrosine-protein kinase Lck (Homo sapiens) (P06239 2-509 limits assumed): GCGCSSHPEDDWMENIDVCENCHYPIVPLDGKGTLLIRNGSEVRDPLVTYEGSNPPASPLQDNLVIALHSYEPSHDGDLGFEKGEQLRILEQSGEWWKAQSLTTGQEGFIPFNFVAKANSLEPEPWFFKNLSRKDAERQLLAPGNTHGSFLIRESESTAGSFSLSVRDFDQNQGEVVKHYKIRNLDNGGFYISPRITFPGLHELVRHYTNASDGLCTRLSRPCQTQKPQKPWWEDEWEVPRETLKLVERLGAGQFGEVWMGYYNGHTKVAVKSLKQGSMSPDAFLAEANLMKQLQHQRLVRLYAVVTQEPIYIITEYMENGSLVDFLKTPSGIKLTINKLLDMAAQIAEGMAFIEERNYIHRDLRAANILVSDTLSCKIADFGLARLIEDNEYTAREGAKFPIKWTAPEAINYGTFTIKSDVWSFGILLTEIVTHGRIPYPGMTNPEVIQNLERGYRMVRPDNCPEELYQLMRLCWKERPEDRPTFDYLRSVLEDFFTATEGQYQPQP
Chain of Mitogen-activated protein kinase 1 (Homo sapiens) (P28482 whole entry): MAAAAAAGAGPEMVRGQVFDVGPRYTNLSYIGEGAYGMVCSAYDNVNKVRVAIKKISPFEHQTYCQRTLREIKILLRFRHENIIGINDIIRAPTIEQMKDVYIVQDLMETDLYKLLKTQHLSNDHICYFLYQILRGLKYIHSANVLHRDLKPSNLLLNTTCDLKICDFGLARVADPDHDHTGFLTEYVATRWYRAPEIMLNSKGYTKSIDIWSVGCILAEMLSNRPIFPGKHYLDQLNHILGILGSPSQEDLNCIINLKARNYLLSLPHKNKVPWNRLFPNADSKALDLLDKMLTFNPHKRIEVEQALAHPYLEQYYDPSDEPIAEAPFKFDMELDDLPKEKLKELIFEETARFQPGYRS

SMILES: CCCCCCOC(=O)[C@@]1(O)C[C@H]2O[C@]1(C)n1c3ccccc3c3c4c(c5c6ccccc6n2c5c31)C(=O)NC4
- residual activity (Bos taurus): 39%
- residual activity (Oryctolagus cuniculus [1]): 20%
- residual activity [2]: 62%
- IC50 [3]: 3300 nM
- residual activity [4]: 58%
- residual activity [5]: 66%
- residual activity [6]: 98%
- residual activity [7]: 95%
- residual activity [8]: 46%
- level, % of control (Oryctolagus cuniculus [9]): 0%
- IC50 [10]: 11 nM
- residual activity [11]: 39%
- residual activity [12]: 87%
- residual activity [13]: 13%
- residual activity [14]: 39%
- residual activity [15]: 84%
- residual activity [16]: 57%
- residual activity [17]: 95%
- level, % of control (Oryctolagus cuniculus [18]): 23%
- residual activity [19]: 7%
- residual activity (Rattus norvegicus): 22%
- residual activity [20]: 36%
- residual activity [21]: 95%
- residual activity [22]: 29%
- residual activity [23]: 81%
- residual activity [24]: 103%
